Measured values as given in US20200138734A1, “TOPICAL FORMULATION FOR TREATING BRUISING” (priority 2018, published 2020).
Like-named read-outs stand apart in the source and are kept apart here.

System: bruise
[1] = lower concentrations within 2% to 20% by weight

Question: `CCC(C)O` (stereo not drawn) [2-Butanol] was tested. Which bruise resolution (2-Butanol alone in the topical formulation, without penetrant) did it give?
Answer: The bruise resolution was “would not provide the bruise resolution”.

Question: And the “side-effects (pain, itching, redness, exfoliation)” value (4% -12% 2-Butanol by weight)?
Answer: Its value is “resolved”.

Question: What about the bruise resolution (10% 2-Butanol by weight of topical formulation) of the same compound?
Answer: Its bruise resolution is “very good bruise resolution”.

Question: And the “frequency and severity of side-effects, such as pain, itching, redness and exfoliation” value (higher concentrations within 2% to 20% by weight)?
Answer: Its value is “increased”.

Question: What about the “efficacy of bruise resolution” value [1] of the same compound?
Answer: Its value is “decreased”.

Question: And the “frequency and severity of side-effects” value [1]?
Answer: Its value is “decreased”.
